Legend:
[1] = molecular target: T1, Ba/F3_EGFR del19/T790M/C797S cells (Homo sapiens, UniProt P00533, T790M/C797S, cells depend on it, form not given); test: Ba/F3_EGFR (del19-T790M-C797S) cell proliferation inhibition, CTG, method 2; assay type: cell-based; conditions: 2000 cells/well, 72 h, read-out: Ba/F3_EGFR (del19-T790M-C797S) cell proliferation inhibition (IC50 value) Method 2
Description: Take a small amount of cells and count them with ViCell. 2) Adjust the cell density, inoculate the cells in a 384-well plate at 2000/well, and incubate in a 37° C., 5% CO2 incubator for 4 hours. 3) Set up the program of Tecan HP D300, add the compound to the well plate. The maximum initial concentration of the compound is 1-4 μM, 3 folds dilution, 9 concentrations, and the DMSO content in each well is unified to 0.2%.
CTG method detection: 1) Take out the CTG reagent and cell plate and equilibrate at room temperature for 30 min, add 25 μL CTG to each well, shake at medium speed for 2 min, centrifuge at 1000 rpm for 1 minutes, and stand still at room temperature for 10 minutes. 2) Envision instrument reads the chemiluminescence signal value.
Data analysis: IC50 results are analyzed by IDBS's XL-fit 5.0 software.

MAP4K1 (HPK1) = MAP4K1 (HPK1) (Homo sapiens, UniProt Q92918); test: MAP4K1 (HPK1) kinase activity inhibition, Caliper mobility shift assay; assay type: biochemical; conditions: kinase 1.25 nM, ATP 10.1 μM
Description: 4. MAP4K1 (HPK1) Kinase Activity Inhibition Experiment: Caliper mobility shift assay was used to detect the inhibitory effect of the compound on MAP4K1 (HPK1) kinase activity. The test concentration of the compound starts at 500 nM, and is diluted 5 folds into 5 concentration points. Use a dispenser Echo 550 to transfer 250 nL 100-fold final concentration of the compound to the target plate 3573, add 10 μL of MAP4K1 (HPK1) kinase solution with a final concentration of 1.25 nM, and incubate for 10 minutes at room temperature (the negative control well contains 10 μL kinase buffer and 250 nL 100% DMSO; the positive control well contains 10 μL kinase solution and 250 nL 100% DMSO). On the kinase MAP4K1 (HPK1), add 15 μL of ATP with a final concentration of 10.1 μM and 3 μM substrate peptide No. 25 mixed solution to react for 120 minutes. Add 30 μL of stop solution containing EDTA to stop the kinase reaction. Use Caliper EZ Reader to read the conversion rate. Inhibition rate %=(Average positive control conversion rate %−Sample conversion rate %/(Average positive control conversion rate %−Average negative control conversion rate %). Among them: negative control wells represent the conversion rate readings without enzyme activity; positive control wells represent the conversion rate readings of wells without compound inhibition. Take the log value of the concentration as the X-axis, and the percentage inhibition rate on the Y-axis. Log (inhibitor) vs. response—Variable slope of analysis software GraphPad Prism 5 was used to fit the curve to obtain the IC50 value of each compound on the enzyme activity. Calculation formula: Y=Bottom+(Top−Bottom)/(1+10 ^((Log IC50−X)*HillSlope)).

[2] = molecular target: T1, Ba/F3_EGFR del19/T790M/C797S cells; test: Ba/F3_EGFR (del19-T790M-C797S) cell proliferation inhibition, CTG, method 1; assay type: cell-based
Description: The cells were cultured in a 37° C., 5% CO2 incubator.
Cell plating and compound treatment: 1) Cells are routinely cultured until the cell saturation is 80%-90%, and when the number reaches the requirement, the cells are collected. 2) Resuspend in the corresponding fresh medium, take a small amount of cells to count, and prepare a cell suspension with a suitable density. 3) Inoculate the cell suspension into a 384-well plate at 700 cells/well, 30 μL per well. 4) Use Echo to add the compound to the corresponding cell well. The maximum starting concentration of the compound is 1-10 μM, 3 folds dilution, 8 concentrations.
CTG method detection: 1) Add 30 μL of CTG reagent (CelltiterGlo kit) to each well, and let it stand for 30 minutes at 37° C. and 5% CO2 in the dark. 2) Use Envision instrument to read the chemiluminescence signal value.
Data analysis: IC50 results are analyzed by GraphPad Prism 6 software. […] X: log value of compound concentration; Y: inhibition rate (% inhibition); inhibition rate (% inhibition)=(blank control well reading−compound well reading)/(blank control well reading−positive control reading)×100.

ALK = ALK (Homo sapiens, UniProt Q9UM73); test: ALK kinase activity inhibition, Caliper mobility shift assay, method 1; assay type: biochemical
Description: 2. ALK Kinase Activity Inhibition Experiment: Method 1: In vitro enzymatic activity of ALK was measured using Caliper mobility shift assay. […] Add 10 μL of 2.5-fold enzyme solution and incubate at room temperature for 10 minutes, then add 10 μL of 2.5-fold substrates (Peptide FAM-P22 and ATP) solution. […] Read conversion rate data on Caliper EZ Reader II (Caliper Life Sciences). Convert the conversion rate into inhibition rate (% inhibition=(max−conversion rate)/(max−min)*100). Max refers to the conversion rate of the DMSO control, and min refers to the conversion rate without enzyme activity. With the compound concentration and inhibition rate on the abscissa and ordinate, draw the curve, use XLFit excel add-in version 5.4.0.8 software to fit the curve and calculate the IC50.

EGFR (C797S) = EGFR (C797S) (Homo sapiens, UniProt P00533, C797S); test: EGFR (C797S) kinase activity inhibition, Lantha screen Assay; assay type: biochemical; conditions: kinase 10 nM, ATP 0.1 μM
Description: 1. EGFR (C797S) Kinase Activity Inhibition Experiment: The Lantha screen Assay method was used to test the inhibitory activity of the compounds at a kinase EGFR (C797S) concentration of 10 nM and an ATP concentration of 0.1 μM. The control samples were Staurosporine. Experimental Steps: […] 2) Control sample Staurosporine and test samples preparation: Staurosporine and the compounds of the embodiment of the present invention are formulated into a gradient concentration solution in 100% DMSO, and diluted to 10% DMSO with the above-mentioned buffer, and added to a 384-well plate. For example, if the initial concentration of the compound is 10 μM, 100% DMSO is used to prepare a 1000 μM solution, and 10 concentration gradients are diluted, and 100 nL solution is transferred to a 384-well plate with Echo*LIQUID HANDLE RS (LABCYTE, USA). […] Transfer 5 μL to the 384-well plate and incubate with the compound for 10-15 minutes. […] Transfer 5 μL to the 384-well plate to initiate the reaction, and incubate at room temperature for 30 minutes. [table] 5) Use TR-Fret dilution buffer to prepare 2-fold detection solution. The final concentration of Antibody is 2 nM and the final concentration of EDTA is 10 mM. Transfer 10 μL of detection solution to the reaction wells of the 384-well plate, shake and mix, and incubate at room temperature for 60 min. 6) Read the ratio of excitation at 340 nm and emission at 520 nm to 495 nm on Envision, and calculate the inhibition rate. 7) Fit IC50 with XL-fit software.

EGFR (T790M/L858R/C797S) = EGFR (T790M/L858R/C797S) (Homo sapiens, UniProt P00533, C797S/L858R/T790M); test: EGFR (T790M/L858R/C797S) kinase activity inhibition, Caliper mobility shift assay; assay type: biochemical; conditions: kinase 2.5 nM, ATP 40 μM
Description: The basic method is the same as ALK activity test method 2. The test concentration of the compound starts at 2 μM, and is diluted 5 folds into 6 (7 for individual compounds) concentration points. […] Add 30 μL of stop solution containing EDTA to stop the kinase reaction. Use Caliper EZ Reader to read the conversion rate. Inhibition rate %=(Average positive control conversion rate %−Sample conversion rate %/(Average positive control conversion rate %−Average negative control conversion rate %). Among them: negative control wells represent the conversion rate readings without enzyme activity; positive control wells represent the conversion rate readings of wells without compound inhibition. Take the log value of the concentration as the X-axis, and the percentage inhibition rate on the Y-axis. Log (inhibitor) vs. response—Variable slope of analysis software GraphPad Prism 5 was used to fit the curve to obtain the IC50 value of each compound on the enzyme activity. Calculation formula: Y=Bottom+(Top−Bottom)/(1+10^((Log IC50−X)*HillSlope)).

[3] = Pharmacokinetic study in rats after intragastrical administration; assay type: in vivo; conditions: male, rat, plasma, po, SD rats, 3 mg/kg; for AUC(0-t): read-out: AUC0-24 h
Description: Example 55: Pharmacokinetic Study in Rats
Instruments: XEVO TQ-S LC/MS instrument produced by Waters. All measurement data is collected and processed by Masslynx V4.1 software, and the data is calculated and processed by Microsoft Excel. Using WinNonLin 8.0 software, the statistical moment method was used to calculate the pharmacokinetic parameters. Mainly include kinetic parameters Tmax, T1/2, Cmax, AUClast etc. […] Injection volume: 5 μL.
Animals: 3 male SD rats with a weight range of 200-220 g. After purchase, they will be kept in the laboratory of the Experimental Animal Center for 2 days and then used. They will be fasted for 12 hours predose and 4 hours after dosing. Drinking water is free during the test. After the rats were gavage, blood samples were taken according to the established time point.
Solvent: 0.5% Methylcellulose (aqueous solution containing 0.4% Tween 80 and 1% ethanol). Preparation of the solution for intragastrical administration: accurately weigh the compound, add it to the solvent, and ultrasonically at room temperature for 5 minutes to completely dissolve the drug, and prepare a 0.3 mg/ml medicinal solution.
Pharmaceutical samples: representative compounds of the structure shown in the patented formula (I) of the present invention, generally, multiple samples with similar structures (with a molecular weight difference of more than 2 units) are taken, accurately weighed, and administered together (cassette PK). In this way, multiple compounds can be screened at the same time and their oral absorption rates can be compared. A single administration was also used to study the pharmacokinetics of the drug sample in rats.
After intragastrical administration, blood was taken from the orbit at 0.25, 0.5, 1, 2, 4, 9, 12 and 24 hours, and placed in a plastic centrifuge tube pretreated with sodium heparin. After centrifugation, the supernatant plasma was used for LC-MS/MS analysis.
Accurately weigh the compounds to prepare different concentrations, perform quantitative analysis on mass spectrometry to establish a standard curve, and then test the concentration of the above-mentioned compound in the plasma to obtain the compound concentration at different time points. All measurement data are collected and processed by relevant software, and the statistical moment method is used to calculate the pharmacokinetic parameters (mainly including kinetic parameters Tmax, T1/2, Cmax, AUClast etc). The results are as follows:
Table 7: Pharmacokinetic Parameters of the Compounds after Intragastrical Administration in SD Rats

[4] = 700 cells/well, 72 h, read-out: Ba/F3_EGFR (del19-T790M-C797S) cell proliferation inhibition (IC50 value) Method 1

Sequence of MAP4K1 (HPK1) (Q92918 whole entry): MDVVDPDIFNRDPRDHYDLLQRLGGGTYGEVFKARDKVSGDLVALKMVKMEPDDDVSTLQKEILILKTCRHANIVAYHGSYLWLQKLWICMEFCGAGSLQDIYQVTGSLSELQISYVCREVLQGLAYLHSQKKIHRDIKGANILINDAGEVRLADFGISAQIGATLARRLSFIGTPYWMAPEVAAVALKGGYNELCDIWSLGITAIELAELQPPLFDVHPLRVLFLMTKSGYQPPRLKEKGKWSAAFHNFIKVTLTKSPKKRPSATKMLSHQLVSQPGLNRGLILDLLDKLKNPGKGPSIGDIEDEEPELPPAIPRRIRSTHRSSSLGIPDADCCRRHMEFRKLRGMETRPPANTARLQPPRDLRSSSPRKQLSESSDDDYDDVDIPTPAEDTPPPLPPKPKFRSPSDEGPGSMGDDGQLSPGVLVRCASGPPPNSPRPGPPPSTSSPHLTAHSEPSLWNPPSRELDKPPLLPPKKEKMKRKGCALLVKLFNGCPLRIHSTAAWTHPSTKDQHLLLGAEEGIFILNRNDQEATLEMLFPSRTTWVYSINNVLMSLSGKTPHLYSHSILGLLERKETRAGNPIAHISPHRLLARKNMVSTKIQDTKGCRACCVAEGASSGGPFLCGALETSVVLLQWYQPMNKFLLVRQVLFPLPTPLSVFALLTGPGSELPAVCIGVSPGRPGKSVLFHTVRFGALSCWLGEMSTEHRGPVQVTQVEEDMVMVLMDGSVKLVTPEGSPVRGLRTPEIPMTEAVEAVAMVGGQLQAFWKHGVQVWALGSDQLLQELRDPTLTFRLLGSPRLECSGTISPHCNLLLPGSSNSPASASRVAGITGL
Sequence of EGFR (T790M/L858R/C797S) (P00533 25-1210 T790M/C797S/L858R): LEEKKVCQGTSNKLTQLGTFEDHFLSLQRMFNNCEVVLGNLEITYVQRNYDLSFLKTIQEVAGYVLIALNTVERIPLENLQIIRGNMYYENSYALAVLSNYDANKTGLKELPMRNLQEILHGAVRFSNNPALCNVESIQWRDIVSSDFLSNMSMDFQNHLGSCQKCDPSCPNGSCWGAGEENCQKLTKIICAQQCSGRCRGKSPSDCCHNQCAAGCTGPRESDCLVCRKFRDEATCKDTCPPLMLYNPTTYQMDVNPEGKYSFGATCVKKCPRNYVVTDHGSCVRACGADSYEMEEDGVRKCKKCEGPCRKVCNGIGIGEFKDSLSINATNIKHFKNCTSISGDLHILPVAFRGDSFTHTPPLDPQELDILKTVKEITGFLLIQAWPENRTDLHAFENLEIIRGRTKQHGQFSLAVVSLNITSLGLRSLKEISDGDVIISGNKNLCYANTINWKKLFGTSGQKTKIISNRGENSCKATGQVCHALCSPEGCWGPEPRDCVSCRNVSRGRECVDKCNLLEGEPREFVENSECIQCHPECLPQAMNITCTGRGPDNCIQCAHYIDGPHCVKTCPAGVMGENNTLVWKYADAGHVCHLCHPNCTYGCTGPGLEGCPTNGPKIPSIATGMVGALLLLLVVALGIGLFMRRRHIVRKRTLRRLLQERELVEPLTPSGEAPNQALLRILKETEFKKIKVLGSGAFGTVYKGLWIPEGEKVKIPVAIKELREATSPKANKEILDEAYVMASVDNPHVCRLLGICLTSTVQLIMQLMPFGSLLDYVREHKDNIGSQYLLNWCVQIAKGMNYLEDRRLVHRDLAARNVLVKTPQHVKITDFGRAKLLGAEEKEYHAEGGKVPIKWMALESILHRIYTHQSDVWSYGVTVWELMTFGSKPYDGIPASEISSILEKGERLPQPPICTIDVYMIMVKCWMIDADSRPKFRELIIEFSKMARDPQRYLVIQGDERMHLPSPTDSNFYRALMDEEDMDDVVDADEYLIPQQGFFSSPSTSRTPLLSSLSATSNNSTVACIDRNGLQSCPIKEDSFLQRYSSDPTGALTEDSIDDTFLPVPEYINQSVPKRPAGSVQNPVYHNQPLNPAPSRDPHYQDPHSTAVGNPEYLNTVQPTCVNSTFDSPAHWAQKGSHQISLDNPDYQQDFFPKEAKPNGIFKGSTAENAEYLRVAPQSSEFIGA
T1 sequence (P00533 with tags, fused parts or gaps DEL746-750/T790M/C797S, form open): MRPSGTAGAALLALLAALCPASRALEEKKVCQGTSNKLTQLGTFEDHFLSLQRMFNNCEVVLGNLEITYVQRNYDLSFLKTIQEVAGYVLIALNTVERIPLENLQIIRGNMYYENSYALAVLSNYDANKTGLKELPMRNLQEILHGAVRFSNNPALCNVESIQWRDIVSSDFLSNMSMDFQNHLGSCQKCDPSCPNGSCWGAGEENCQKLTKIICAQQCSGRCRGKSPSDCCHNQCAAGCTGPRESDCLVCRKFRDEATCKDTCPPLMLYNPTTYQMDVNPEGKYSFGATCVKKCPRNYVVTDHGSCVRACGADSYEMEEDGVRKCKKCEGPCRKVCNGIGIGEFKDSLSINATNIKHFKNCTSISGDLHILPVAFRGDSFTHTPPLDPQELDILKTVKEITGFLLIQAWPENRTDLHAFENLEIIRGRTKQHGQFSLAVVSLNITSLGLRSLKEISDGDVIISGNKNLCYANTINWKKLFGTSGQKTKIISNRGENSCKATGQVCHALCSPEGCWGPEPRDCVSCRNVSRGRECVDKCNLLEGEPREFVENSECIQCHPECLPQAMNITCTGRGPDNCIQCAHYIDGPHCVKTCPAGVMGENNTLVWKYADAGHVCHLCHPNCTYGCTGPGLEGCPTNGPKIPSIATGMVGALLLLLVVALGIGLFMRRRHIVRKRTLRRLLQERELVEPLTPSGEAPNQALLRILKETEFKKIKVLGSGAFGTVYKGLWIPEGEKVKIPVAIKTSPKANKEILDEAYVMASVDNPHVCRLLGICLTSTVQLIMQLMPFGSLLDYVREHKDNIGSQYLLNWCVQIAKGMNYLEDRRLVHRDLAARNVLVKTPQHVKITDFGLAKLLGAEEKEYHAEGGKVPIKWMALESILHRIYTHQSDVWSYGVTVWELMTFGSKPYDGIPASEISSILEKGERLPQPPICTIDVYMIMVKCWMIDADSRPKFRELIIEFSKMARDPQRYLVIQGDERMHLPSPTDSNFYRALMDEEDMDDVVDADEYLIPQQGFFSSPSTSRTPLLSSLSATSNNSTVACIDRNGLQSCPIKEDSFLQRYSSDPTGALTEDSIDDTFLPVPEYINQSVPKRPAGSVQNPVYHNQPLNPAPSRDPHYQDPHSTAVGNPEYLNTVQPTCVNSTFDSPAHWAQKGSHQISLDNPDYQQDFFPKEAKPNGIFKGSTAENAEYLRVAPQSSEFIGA
Sequence of EGFR (C797S) (P00533 25-1210 C797S): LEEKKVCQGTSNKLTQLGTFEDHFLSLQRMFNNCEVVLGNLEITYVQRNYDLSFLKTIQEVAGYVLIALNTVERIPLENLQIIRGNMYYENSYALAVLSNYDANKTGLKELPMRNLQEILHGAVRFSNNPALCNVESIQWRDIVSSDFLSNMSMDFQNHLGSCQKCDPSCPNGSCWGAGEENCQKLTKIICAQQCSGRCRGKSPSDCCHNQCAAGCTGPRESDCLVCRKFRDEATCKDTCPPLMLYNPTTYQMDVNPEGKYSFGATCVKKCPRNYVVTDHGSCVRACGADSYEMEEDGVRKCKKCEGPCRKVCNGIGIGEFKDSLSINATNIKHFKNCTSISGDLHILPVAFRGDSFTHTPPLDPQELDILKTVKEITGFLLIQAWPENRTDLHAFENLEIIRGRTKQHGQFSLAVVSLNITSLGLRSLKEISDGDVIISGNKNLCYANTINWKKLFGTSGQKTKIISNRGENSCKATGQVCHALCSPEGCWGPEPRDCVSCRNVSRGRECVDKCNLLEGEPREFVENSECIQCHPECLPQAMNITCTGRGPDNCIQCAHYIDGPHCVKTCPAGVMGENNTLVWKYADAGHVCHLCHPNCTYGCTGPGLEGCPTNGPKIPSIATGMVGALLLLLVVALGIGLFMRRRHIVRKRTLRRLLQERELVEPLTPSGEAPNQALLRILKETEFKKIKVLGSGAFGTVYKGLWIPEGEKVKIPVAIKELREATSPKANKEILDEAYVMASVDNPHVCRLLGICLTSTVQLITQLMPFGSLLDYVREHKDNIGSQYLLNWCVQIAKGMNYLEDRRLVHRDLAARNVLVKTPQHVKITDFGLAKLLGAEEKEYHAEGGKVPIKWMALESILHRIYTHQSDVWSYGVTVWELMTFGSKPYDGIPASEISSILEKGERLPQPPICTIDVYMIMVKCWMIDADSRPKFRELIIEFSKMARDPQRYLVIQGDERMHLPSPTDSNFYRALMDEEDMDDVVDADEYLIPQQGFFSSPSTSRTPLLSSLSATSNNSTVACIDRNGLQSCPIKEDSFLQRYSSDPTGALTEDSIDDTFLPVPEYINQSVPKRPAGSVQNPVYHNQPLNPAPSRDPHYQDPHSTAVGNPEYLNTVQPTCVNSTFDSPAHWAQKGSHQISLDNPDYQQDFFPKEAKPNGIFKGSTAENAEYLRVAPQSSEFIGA

| IC50 (MAP4K1 (HPK1)) [nM] | GI50 [2, 4] [nM] | IC50 (EGFR (T790M/L858R/C797S)) [nM] | Compound | other results |
| --- | --- | --- | --- | --- |
| 1 to 10 | 100 to 200 |  | CN(C)CCN1CCN2c3ccc(Nc4ncc(Cl)c(Nc5ccccc5P(C)(C)=O)n4)cc3OC[C@H]2C1 [Compound 14R] | IC50 (ALK): 50 to 250 nM; IC50 (EGFR (C797S)): 50 to 250 nM |
| 1 to 10 |  | 15 to 100 | CP(C)(=O)c1ccccc1Nc1nc(Nc2ccc3c(c2)OC[C@H]2CN(c4ccccc4)CCN32)ncc1Cl [Compound 16R] | IC50 (ALK): 50 to 250 nM; IC50 (EGFR (C797S)): 50 to 250 nM |
| ≤ 1 | 100 to 200 | < 3 | CN(C)C/C=C/C(=O)N1CCN2c3ccc(Nc4ncc(Cl)c(Nc5ccccc5P(C)(C)=O)n4)cc3OC[C@H]2C1 [Compound 18R] |  |
| ≤ 1 | > 200 | < 3 | CP(C)(=O)c1ccccc1Nc1nc(Nc2ccc3c(c2)OC[C@H]2CN(C4CCNCC4)CCN32)ncc1Cl [Compound 21R] |  |
| ≤ 1 | < 20 | 3 to 15 | C=CC(=O)N1CCC(N2CCN3c4ccc(Nc5ncc(Cl)c(Nc6ccccc6P(C)(C)=O)n5)cc4OC[C@H]3C2)CC1 [Compound 22R] |  |
| ≤ 1 | < 20 | < 3 | Cc1cc(Nc2ncc(Cl)c(Nc3ccccc3P(C)(C)=O)n2)cc2c1N1CCNC[C@H]1CO2 [Compound 23S] |  |
| 1 to 10 | 20 to 100 | 3 to 15 | Cc1cc(Nc2ncc(Cl)c(Nc3ccccc3P(C)(C)=O)n2)cc2c1OC[C@H]1CNCCN21 [Compound 24R] |  |
| ≤ 1 | 20 to 100 | 3 to 15 | C=CC(=O)Nc1cc(Nc2ncc(Cl)c(Nc3ccccc3P(C)(C)=O)n2)cc2c1N1CCN(C)C[C@@H]1CO2 [Compound 29R] |  |
| ≤ 1 |  | < 3 | Cc1cc(Nc2ncc(Cl)c(Nc3ccccc3P(C)(C)=O)n2)cc2c1N1CCN(C3CCOCC3)C[C@H]1CO2 [Compound 31S] | GI50 [1]: 20 to 100 nM; Cmax [3]: 160 ng/mL; Tmax [3]: 1 h; half-life [3]: 6.27 h; AUC(0-t) [3]: 1350 ng·h/mL |
| ≤ 1 | 20 to 100 | < 3 | CC(=O)N1CCC(N2CCN3c4c(C)cc(Nc5ncc(Cl)c(Nc6ccccc6P(C)(C)=O)n5)cc4OC[C@@H]3C2)CC1 [Compound 32S] | Cmax [3]: 352 ng/mL; Tmax [3]: 3.33 h; half-life [3]: 2.22 h; AUC(0-t) [3]: 3260 ng·h/mL |
| ≤ 1 |  | < 3 | Cc1cc(Nc2ncc(Cl)c(Nc3ccccc3P(C)(C)=O)n2)cc2c1N1CCN(C3CN(C)C3)C[C@H]1CO2 [Compound 34S] | GI50 [1]: < 20 nM |

| Compound | IC50 (MAP4K1 (HPK1)) [nM] | GI50 [2, 4] [nM] | IC50 (EGFR (T790M/L858R/C797S)) [nM] | other results |
| --- | --- | --- | --- | --- |
| COc1cc(N2CCC(N3CCN(C)CC3)CC2)ccc1Nc1ncc(Cl)c(Nc2ccccc2P(C)(C)=O)n1 [Brigatinib, reference compound] | 10 to 100 |  |  | GI50 [1]: > 200 nM; GI50 ([2]; read-out: Ba/F3_EGFR (del19-T790M-C797S) cell proliferation inhibition (IC50 value) Method 1, 700 cells/well, 72 h): 100 to 200 nM |
